Assays:
Type in all cases: cell-based, human
T cells = test: Detection of cell death: 7-AAD staining of anti-CD3 stimulated lymphocytes, FACScan; settings: anti-CD3, 3 days; 1501 µM kynurenine, 349µM 3-hydroxykynurenine, 510µM 3-hydroxyanthranilic acid, mixture 64 µM of each compound
Procedure: Lymphocytes were stimulated in culture with anti-CD3 monoclonal antibody (s. above) in the presence or absence (control) of kynurenine (1501µM), 3-hydroxyanthranilic acid (510µM), 3-hydroxykynurenine (348µM), or metabolite mixture (64µM kynurenine + 64µM 3-hydroxykynurenine + 64µM anthranilic acid + 64µM 3-hydroxyanthranilic acid + […] quinolinic acid). After 3 days the cells were washed and resuspended in PBS (10^6/ml). Thereafter, the cells (100µ1 suspension) were labeled with anti-CD3-FITC antibody (3 µl), stained with 7-AAD (5µl) for 15 min, and the percentage of 7-AAD-positive (dead) T cells was determined in a FACScan. In an other experiment T cells, B cells, NK-cells, or DCs were separated from PBMCs by magnetic beads or generated as described, and cultured (5x10^5 cells/ml) with a mixture of kynurenine metabolites (kynurenine + 3-hydroxykynurenine + anthranilic acid + 3-hydroxyanthranilic acid + quinolinic acid)(8, 16, or 32µM respectively for each compound). In one setting T cells were activated with anti-CD3 antibody. Cell death was measured daily for 5 days by 7-AAD staining and expressed in percentage of dead cells.

CD3-stimulated T cells = test: CD3 stimulation of T cells: metabolite titration curves, 3[H]-thymidin incorporation; settings: anti-CD3 antibody, 3 days; for IC50: Homo sapiens, T-cell, 72 h, single substance, read-out: I50 of proliferation of CD3-stimulated T cells
Source text: • (a) Allogeneic T-cell response. DCs were infected with recombinant IDO-adeno-GFP (DC-IDO-GFP), IDO-adeno (DC-IDO) or with control adenoviruses (DC-adeno) at a MOI (multiplicity of infection) up to 500 for 2 days. Lymphocytes (PBMCs) were separated from peripheral blood of healthy donors by density gradient centrifugation and typed for HLA antigens. Only HLA-DR-different responder lymphocytes were used for DC-induced stimulation. Native DCs only, lymphocytes only, native DCs + allogeneic lymphocytes, DC-IDO-GFP + allogeneic lymphoytes, DC-IDO + allogeneic lymphoytes, DC-adeno + allogeneic lymphocytes (each time 10^5 DC + 10^5 lymphocytes in 0.2ml medium) were cultured in RPMI 1640 medium (Gibco BRL Life Technologies GmbH, Eggenstein, Germany) with 10% fetal calf serum (FCS) (final tryptophan concentration 5.25 mg/l = 25.69 uM) and Penicillin G/Streptomycin. […] In order to verify whether IDO expression or adenovirus infection harm the DCs, 10^5 cells were infected with IDO-adeno-GFP, IDO-adenovirus, or adenovirus only at a stepwise decreasing MOI (500, 250, 125, ........ 3.9) and cell viability was measured in FACS following double staining with 7-AAD and anti-CD83 antibody-PE. The percentage of dead cells never exceeded 30% for any MOI following IDO-adeno-GFP- or IDO-adeno-infection and 40% following adenovirus(control)-infection. Moreover, these values were not higher than those of native DCs cultured for the same period of time. The experiment was repeated using ethidium bromide or trypan blue staining with virtually the same result. […] Peripheral blood lymphocytes were cultured (10^5 cells/well) in RPMI 1640 (10% FCS) with anti CD3 monoclonal antibody (Ortho Diagnostic Systems Inc., Raritan, NJ) (final dilution 1:200). […] Kynurenine, 3-hydroxykynurenine, anthranilic acid, 3-hydroxyanthranilic acid, and quinolinic acid (Sigma-Aldrich Chemie GmbH, Taufkirchen, Germany)(for all substances purity>98%) were dissolved in RPMI 1640 and added to cell cultures at various concentrations. In an other experiment, to determine whether the metabolites have an additive effect, equal concentrations of the compounds were mixed and added to the cultures. […] Positive controls consisted of CD3-stimulated cells without metabolites and negative controls of unstimulated cells. • (d) Restimulation of suppressed T cells. Lymphocytes (10^5 cells/well) were cultured in RPMI 1640 (10% FCS) with anti-CD3 monoclonal antibody (final dilution 1:200) and kynurenine (dilution series). […] Controls consisted of cells prestimulated with anti-CD3 but not pretreated with kynurenine. In an other restimulation experiment lymphocytes were stimulated with allogeneic DCs as described, in the presence (47-1500µM) or absence of kynurenine. Control cultures contained DCs or lymphocytes only. After 5 days the cells were extensively washed, and restimulated with an identical number of DCs derived from the same donor or from third party donors. […] In order to define the concentration of tryptophan which reduces T- lymphocyte proliferation in our test system, 10^5 lymphocytes were incubated in tryptophan-free RPMI 1640 medium (Gibco BRL Life Technologies) with or without 10% FCS, stimulated with anti-CD3 monoclonal antibody, and various amounts (0-38µM) of tryptophan were added. Unimpaired proliferation was observed down to 0.30µM (medium with FCS) and 1 .20µM (without FCS). Complete inhibition was not obtained at any concentration (positive control 100% proliferation; maximal suppression in medium with FCS: approx. 66% and without FCS: approx. 33%). All cell cultures were done in triplicate.
All tests were carried out in triplicate and results are given as mean +standard deviation. […] Thereafter, the concentration of substance giving 50% proliferation was calculated by regression.

[1] = tested on: T cells stimulated by allogeneic DCs; test: Allogeneic T-cell response: lymphocyte proliferation induced by allogeneic dendritic cells, 3[H]-thymidin incorporation; settings: 6 days
Source text: DCs were generated from CD14-positive blood monocytes as previously described ("Schuler G. and N. Romani", 1997, Adv. Exp. Med. Biol. 417:7-13). Briefly, peripheral blood mononuclear cells of an HLA-typed healthy donor were separated by density gradient centrifugation and CD14-positive monocytes were isolated by adherence to culture dishes. Non-adherent cells were discarded. After culture of monocytes in the presence of human rGM-CSF (666 Units/ml) and rIL-4 (1000 Units/ml) for 7 days, rTNF-α (10 ng/ml) was added for an additional 2 days to induce maturation of DC. Characterization of DC phenotype was performed by flow cytometry using the following mouse monoclonal antibodies: anti-CD 14-FITC, anti-HLA-DR-FITC, anti-CD 1a-PE, anti-CD86-PE, and anti-CD83-PE (BD Biosciences Heidelberg, Germany). DCs were kept in liquid nitrogen until use.
• (a) Allogeneic T-cell response. DCs were infected with recombinant IDO-adeno-GFP (DC-IDO-GFP), IDO-adeno (DC-IDO) or with control adenoviruses (DC-adeno) at a MOI (multiplicity of infection) up to 500 for 2 days. […] After 5 days, ^3[H]-thymidin was added for 12hrs and the number of counts (counts per minute = cpm) determined in a (3-counter (Inotech Biosystems, Lansing, MI). In order to verify whether IDO expression or adenovirus infection harm the DCs, 10^5 cells were infected with IDO-adeno-GFP, IDO-adenovirus, or adenovirus only at a stepwise decreasing MOI (500, 250, 125, ........ 3.9) and cell viability was measured in FACS following double staining with 7-AAD and anti-CD83 antibody-PE. The percentage of dead cells never exceeded 30% for any MOI following IDO-adeno-GFP- or IDO-adeno-infection and 40% following adenovirus(control)-infection. […] After 2 days, cell proliferation was assessed by measuring ^3[H]-thymidin incorporation (cpm) as described. • (c) Tryptophan metabolite titration curves. […] After 2 days, ^3[H] thymidin was added and the number of counts recorded. […] After another 2 days, ^3[H] thymidin was added and cpm determined. […]

[2] = tested on: T- lymphocyte proliferation; test: Tryptophan titration curve: proliferation of anti-CD3 stimulated lymphocytes in tryptophan-free medium; settings: for maximal suppression: positive control 100% proliferation
Source text: • (a) Allogeneic T-cell response. DCs were infected with recombinant IDO-adeno-GFP (DC-IDO-GFP), IDO-adeno (DC-IDO) or with control adenoviruses (DC-adeno) at a MOI (multiplicity of infection) up to 500 for 2 days. Lymphocytes (PBMCs) were separated from peripheral blood of healthy donors by density gradient centrifugation and typed for HLA antigens. Only HLA-DR-different responder lymphocytes were used for DC-induced stimulation. Native DCs only, lymphocytes only, native DCs + allogeneic lymphocytes, DC-IDO-GFP + allogeneic lymphoytes, DC-IDO + allogeneic lymphoytes, DC-adeno + allogeneic lymphocytes (each time 10^5 DC + 10^5 lymphocytes in 0.2ml medium) were cultured in RPMI 1640 medium (Gibco BRL Life Technologies GmbH, Eggenstein, Germany) with 10% fetal calf serum (FCS) (final tryptophan concentration 5.25 mg/l = 25.69 uM) and Penicillin G/Streptomycin. After 5 days, ^3[H]-thymidin was added for 12hrs and the number of counts (counts per minute = cpm) determined in a (3-counter (Inotech Biosystems, Lansing, MI). In order to verify whether IDO expression or adenovirus infection harm the DCs, 10^5 cells were infected with IDO-adeno-GFP, IDO-adenovirus, or adenovirus only at a stepwise decreasing MOI (500, 250, 125, ........ 3.9) and cell viability was measured in FACS following double staining with 7-AAD and anti-CD83 antibody-PE. The percentage of dead cells never exceeded 30% for any MOI following IDO-adeno-GFP- or IDO-adeno-infection and 40% following adenovirus(control)-infection. Moreover, these values were not higher than those of native DCs cultured for the same period of time. […] After 2 days, cell proliferation was assessed by measuring ^3[H]-thymidin incorporation (cpm) as described. • (c) Tryptophan metabolite titration curves. […] After 2 days, ^3[H] thymidin was added and the number of counts recorded. […] After another 2 days, ^3[H] thymidin was added and cpm determined. […] 3[H] thymidin was added to all cultures and the number of counts (cpm) determined. • (e) Tryptophan titration curve. […]

Nc1c(O)cccc1C(=O)O [3-hydroxyanthranilic acid]
dead (7-AAD-positive) T cells (in words) (T cells): virtually all cells died
IC50 (CD3-stimulated T cells): 96 µM
suppression of T cell response (in words) (CD3-stimulated T cells): strongly suppress T cells

Nc1c(O)cccc1C(=O)CC(N)C(=O)O (centres unmarked) [3-hydroxykynurenine]
dead (7-AAD-positive) T cells (in words) (T cells): virtually all cells died
IC50 (CD3-stimulated T cells): 187 µM
suppression of T cell response (in words) (CD3-stimulated T cells): strongly suppress T cells

Nc1ccccc1C(=O)C[C@@H](N)C(=O)O [D-kynurenine]
inhibition of proliferation of T cells stimulated by allogeneic DCs (in words) [1]: The same effect was noted
suppression of T cell response (in words) (CD3-stimulated T cells): The same effect was noted

NC(CC(=O)c1ccccc1NC=O)C(=O)O (centres unmarked) [N-formylkynurenine]
suppression of T cell response (in words) (CD3-stimulated T cells): Suppression of T-cell response can also be achieved

Nc1ccccc1C(=O)O [anthranilic acid]
suppression of T cell response (in words) (CD3-stimulated T cells): suppressive but at higher concentrations

O=C(O)c1cccnc1C(=O)O [quinolinic acid]
suppression of T cell response (in words) (CD3-stimulated T cells): suppressive but at higher concentrations

N[C@@H](Cc1c[nH]c2ccccc12)C(=O)O [tryptophan]
lowest tryptophan concentration with unimpaired proliferation ([2]; medium with FCS): 0.30 µM
maximal suppression ([2]; medium with FCS): approx. 66%
maximal suppression ([2]; medium without FCS): approx. 33%
